“Also recorded” adds a separate entry of the source. Like-named read-outs stand apart in the source and are kept apart here. Where a SMILES comes first, the peptide text is derived from it. Bridges are numbered along the chain shown (N, C = ends).
Key:
[1] = tested on: human neuroblastoma (SH-SY5Y) cells; conditions: for Cell viability: 24 h
[2] = tested on: intracellular calcium level ([Ca^2+]c) in bovine chromaffin cells; experiment: Intracellular calcium level with Fluo-4-AM in K+-stimulated bovine chromaffin cells; format: cell-based; conditions: for Reduction of [Ca2+]c: Fluo-4, K+ stimulus (text 35 µM, legend 35 mM), room temperature, fluorescence 488/522 nm, mean ± SEM; for Reduction of fluorescence compared with baseline: p ≤ 0.001; for IC50: K+-stimulated, fit to an exponential function, 1, 3, 10 μM, read-out: IC50 for depression of the intracellular calcium increment
[3] = tested on: sodium inward current (INa) in bovine chromaffin cells; experiment: Sodium current (INa) block, whole-cell patch clamp in bovine chromaffin cells; format: cell-based; conditions: for Block of INa: 10 ms pulses to 0 mV, holding -80 mV, 0 mM external Ca2+, pH 7.4, 22–24 °C, end of 3-min superfusion (legend: 1 min), mean ± SEM, n = 3–6 cells; for IC50: peak INa, fit to an exponential function, 1, 3, 10 μM, read-out: IC50 for sodium current blockade
[4] = tested on: voltage-dependent Ca^2+ channel (ICa) in bovine chromaffin cells; format: cell-based; conditions: for Block of ICa: 50 ms pulses to 0 mV, holding -80 mV, 10 mM Ca2+, 5 μM TTX, pH 7.4, 22–24 °C, end of 1-min superfusion; for IC50: peak ICa, fit to an exponential function, 1, 3, 10 μM, read-out: IC50 for calcium current blockade
[5] = TFA salt, lyophilized powder, ref China Peptides (custom peptide service), cited from earlier work
[6] = tested on: voltage-gated sodium channels in vertebrates; conditions: ref [14]; cited from earlier work
From the text: (§1) Previously, we investigated the synthetic versions of the linear PpVα and the folded PpVα analog, which contains an internal single disulfide bond, and the linear, chimeric PpVα.

[7] = tested on: voltage-dependent potassium current (IKv) in bovine chromaffin cells; experiment: Voltage-dependent potassium current (IKv) block, whole-cell patch clamp in bovine chromaffin cells; format: cell-based; conditions: for Block of IKv: 10 µM, 400 ms pulses to 100 mV, holding -80 mV, 2 mM Ca2+, 200 μM Cd2+, 22–24 °C, mean ± SEM, n = 3–4 cells
[8] = tested on: human neuroblastoma (SH-SY5Y) cells
Cav channels (Cav2.2) = conditions: cited from earlier work
[9] = tested on: 6-OHDA-induced neurotoxicity on zebrafish locomotor behavior; conditions: ROS, dopaminergic neurons, ref [14], cited from earlier work
From the text: Previously, we investigated the synthetic versions of the linear PpVα and the folded PpVα analog, which contains an internal single disulfide bond, and the linear, chimeric PpVα. […] [17].

zebrafish larvae = conditions: cited from earlier work; for LD50 in zebrafish larvae: concentration causing 50% of death
[10] = tested on: zebrafish model of epilepsy; conditions: ref [14]; cited from earlier work
From the text: as §1

[11] = 1 μM, mean ± SEM, n = 3–5 cells (legend: 5–6)
[12] = 3 μM, mean ± SEM of 5–6 experiments
[13] = 10 μM, mean ± SEM of 5–6 experiments

Compound | Cell viability ([1]; 1 μM) [%] | Cell viability ([1]; 3 μM) [%] | Cell viability ([1]; 10 μM) [%] | Reduction of [Ca2+]c ([2]; 1 μM) [%] | Reduction of [Ca2+]c ([2]; 3 μM) [%] | Reduction of [Ca2+]c ([2]; 10 μM) [%] | IC50 [2] [µM] | Block of INa ([3]; 3 μM) [%] | Block of INa ([3]; 10 μM) [%] | IC50 [3] [µM] | Block of ICa [4, 11] [%] | Block of ICa [4, 13] [%] | IC50 [4] [µM] | Block of IKv [7] [%] | further results
CC[C@H](C)[C@H](NC(=O)[C@H](CC(C)C)NC(=O)[C@H](CCC(=O)O)NC(=O)CN)C(=O)N[C@@H](CCCCN)C(=O)N[C@@H](CCSC)C(=O)N[C@@H](CCCCN)C(=O)N[C@@H](Cc1ccc(O)cc1)C(=O)N[C@@H](Cc1c[nH]c2ccccc12)C(=O)N[C@H](C(=O)N[C@@H](CC(C)C)C(=O)N[C@@H](CC(N)=O)C(=O)N[C@H](C(=O)N1CCC[C@H]1C(=O)N[C@@H](C)C(=O)N[C@@H](CO)C(=O)N[C@H](C(=O)N[C@@H](CS)C(=O)N[C@@H](CC(=O)O)C(=O)N[C@@H](CCC(=O)O)C(=O)N[C@@H](Cc1ccc(O)cc1)C(=O)N[C@@H](CS)C(=O)N[C@@H](Cc1c[nH]c2ccccc12)C(=O)N[C@@H](CO)C(=O)N[C@@H](CCC(N)=O)C(=O)N[C@@H](CCSC)C(=O)N[C@@H](CC(C)C)C(=O)N[C@@H](CC(C)C)C(=O)N[C@@H](Cc1ccc(O)cc1)C(=O)N[C@@H](CCCCN)C(=O)N[C@@H](CCCCN)C(=O)N[C@@H](CO)C(N)=O)C(C)C)C(C)C)[C@@H](C)CC [CHI] (H-GELIKMKYWILNVPASVCDEYCWSQMLLYKKS-NH2; N-terminus assumed) | 71 | 73 | 67 | 33.2 ± 9.4 | 36.0 ± 8.2 | 65.0 ± 4.7 | 6.89 | 22.05 ± 3.61 | 75.57 ± 5.05 | 7.65 | 10.74 ± 0.61 | 63.43 ± 4.76 | 8.88 | 1.21 ± 2.42 | Reduction of fluorescence compared with baseline ([2]; 10 μM): more than 60%; Block of INa ([3]; 1 μM): 14.79 ± 2.16%; Effect on INa at low concentrations ([3]; 1 and 3 μM): no effect on INa; Block of ICa [4, 12]: 14.28 ± 2.08%; Solubility ([5]; in 20%ACN/80%H2O): 1000 µg/mL; Block of voltage-gated sodium channels in vertebrates [6]: effective blockers of voltage-gated sodium channels in vertebrates
COc1ccc2[nH]cc(CCNC(C)=O)c2c1 [melatonin, reference compound] |  |  |  |  |  |  |  |  |  |  |  |  |  |  | Reversion of cell damage ([1]; O/R (3 μM/4 μM) 24 h): approximately 80%; Cell viability with MLT ([1]; positive control against O/R, mean): 82%
NC1=N[C@H](O)[C@H]2[C@H]3O[C@]4(O)O[C@@H]([C@@H](O)[C@@]2(N1)[C@@H]4O)[C@]3(O)CO [tetrodotoxin] |  |  |  |  |  |  |  |  |  |  |  |  |  |  | Cell viability with TTX [8]: 85.41%; Neuroprotection against veratridine, in words [8]: almost wholly reverted the cellular damage
COc1ccc(C(=O)O[C@H]2CC[C@@]3(C)[C@@H]4CC[C@H]5[C@]6(O)C[C@H](O)[C@@]7(O)[C@@H](CN8C[C@@H](C)CC[C@H]8[C@@]7(C)O)[C@]6(O)C[C@@]53O[C@]24O)cc1OC [veratridine] |  |  |  |  |  |  |  |  |  |  |  |  |  |  | Cell viability, inducer alone (VTD) ([8]; veratridine 24 h, no peptide, untreated control 100, mean): 49.21%; Mortality rate compared with untreated cells ([8]; veratridine, 24 h): 50%
ziconotide |  |  |  |  |  |  |  |  |  |  |  |  |  |  | Cav channel inhibition (Cav channels (Cav2.2)): highly selective and potent inhibitor of Cav channels
CC[C@H](C)[C@H](NC(=O)[C@H](Cc1c[nH]c2ccccc12)NC(=O)[C@H](Cc1ccc(O)cc1)NC(=O)[C@@H](N)CCCCN)C(=O)N[C@@H](CC(C)C)C(=O)N[C@@H](CC(N)=O)C(=O)N[C@H](C(=O)N1CCC[C@H]1C(=O)N[C@@H](C)C(=O)N[C@@H](CO)C(=O)N[C@H](C(=O)N[C@H]1CSSC[C@@H](C(=O)N[C@@H](Cc2c[nH]c3ccccc23)C(=O)N[C@@H](CO)C(=O)N[C@@H](CCC(N)=O)C(=O)N[C@@H](CCSC)C(=O)N[C@@H](CC(C)C)C(=O)N[C@@H](CC(C)C)C(=O)N[C@@H](Cc2ccc(O)cc2)C(=O)N[C@@H](CCCCN)C(=O)N[C@@H](CCCCN)C(=O)N[C@@H](CO)C(N)=O)NC(=O)[C@H](Cc2ccc(O)cc2)NC(=O)[C@H](CCC(=O)O)NC(=O)[C@H](CC(=O)O)NC1=O)C(C)C)C(C)C [SSB] (H-KYWILNVPASVCDEYCWSQMLLYKKS-NH2; disulfide 12-16; N-terminus assumed) | 75 | 68 | 65 | 28.1 ± 6.0 | 33.3 ± 7.9 | 42.7 ± 7.4 | 26 | 52.01 ± 11.02 | 73.76 ± 6.37 | 3.15 | 10.10 ± 7.22 | 74.46 ± 5.00 | 9.68 | 12.84 ± 4.19 | Effect on 6-OHDA-induced neurotoxicity ([9]; listed as folded PpVα): reversing the 6-hydroxydopamine (6-OHDA)-induced neurotoxicity on zebrafish locomotor behavior; also recorded: preventing the 6-OHDA-induced excessive ROS generation and subsequent dopaminergic neuron loss; Effect on 6-OHDA-induced neurotoxicity ([9]; listed as folded peptide): more effective than the linear unfolded peptide in suppressing 6-OHDA-induced neurotoxicity on locomotor behavior in zebrafish; Effect on 6-OHDA-induced neurotoxicity ([9]; listed as folded-PpVα): prevented the 6-OHDA-induced excessive ROS generation and subsequent dopaminergic neuron loss; LD50 in zebrafish larvae (zebrafish larvae; ref [14],[53]): 10.88 µM; Toxicity relative to the linear peptide (zebrafish larvae; zebrafish model, ref [14]): less toxic than the linear peptide; Solubility ([5]; in 30%ACN/70%H2O): 1000 µg/mL; Antiepileptic and neuroprotective activities [10]: displayed antiepileptic and neuroprotective activities; Block of voltage-gated sodium channels in vertebrates [6]: effective blockers of voltage-gated sodium channels in vertebrates; Effect on voltage-dependent potassium current ([7]; up to 10 µM): no effect on IKv was observed
CC[C@H](C)[C@H](NC(=O)[C@H](Cc1c[nH]c2ccccc12)NC(=O)[C@H](Cc1ccc(O)cc1)NC(=O)[C@@H](N)CCCCN)C(=O)N[C@@H](CC(C)C)C(=O)N[C@@H](CC(N)=O)C(=O)N[C@H](C(=O)N1CCC[C@H]1C(=O)N[C@@H](C)C(=O)N[C@@H](CO)C(=O)N[C@H](C(=O)N[C@@H](CS)C(=O)N[C@@H](CC(=O)O)C(=O)N[C@@H](CCC(=O)O)C(=O)N[C@@H](Cc1ccc(O)cc1)C(=O)N[C@@H](CS)C(=O)N[C@@H](Cc1c[nH]c2ccccc12)C(=O)N[C@@H](CO)C(=O)N[C@@H](CCC(N)=O)C(=O)N[C@@H](CCSC)C(=O)N[C@@H](CC(C)C)C(=O)N[C@@H](CC(C)C)C(=O)N[C@@H](Cc1ccc(O)cc1)C(=O)N[C@@H](CCCCN)C(=O)N[C@@H](CCCCN)C(=O)N[C@@H](CO)C(N)=O)C(C)C)C(C)C [PPA] (H-KYWILNVPASVCDEYCWSQMLLYKKS-NH2; N-terminus assumed) | 77 | 71 | 60 | 38.5 ± 7.1 | 38.7 ± 10.8 | 60.9 ± 6.1 | 6.95 | 28.92 ± 4.60 | 54.32 ± 8.29 | 9.08 | 19.92 ± 5.32 | 52.86 ± 8.69 | 8.77 | 14.04 ± 5.99 | Reduction of fluorescence compared with baseline ([2]; 10 μM): more than 60%; Block of INa ([3]; 1 μM): 14.80 ± 5.05%; Neuroprotection against veratridine, in words ([8]; veratridine, 24 h): lower neuroprotection than SSB and CHI; Survival rate of zebrafish larvae (zebrafish larvae; 1–30 µM, three different times, ref [14],[53]): decrease in survival rate to a minimum, for example, within 20 min at 3 µM peptide; LD50 in zebrafish larvae (zebrafish larvae; ref [14],[53]): 21.23 µM; Block of ICa [4, 12]: 38.50 ± 7.14%; Solubility ([5]; in 30%ACN/70%H2O): 1000 µg/mL

From article PMC12655438, “Inhibitory Activity of Calcium and Sodium Ion Channels of Neurotoxic Protoplaythoa variabilis V-Shape Helical Peptide Analogs and Their Neuroprotective Effect In Vitro” (Pharmaceuticals, 2025)
